From patent US7348155B2, “Method for identifying compounds for treating aging processes in the coronary circulatory system” (Sanofi-Aventis Deutschland GmbH, priority 2001, dated 2008)
“And” between values parts separate entries of the source, which are not always exact repeats. Equal entries are not always repeated.

How the values were obtained:
Format in all cases: cell-based
[1] = test system: human cardiac fibroblasts from explanted hearts in the terminal stage of cardiac insufficiency; assay: Procollagen type I C-peptide ELISA (collagen synthesis) in fibroblasts from hearts in the terminal stage of cardiac insufficiency (EFH); conditions: 10^−7 mol/l; for Collagen synthesis (procollagen type I C-peptide, Absorption, in % of the controls), MV: mean value over EFH hearts (SEM as spread)
Method: Human cardiac fibroblasts were isolated from seven explanted human hearts in the terminal stage of cardiac insufficiency due to dilated cardiomyopathy. Four cell preparations were also made from healthy donor hearts. The fibroblasts were isolated in sterile 10 cm Petri dishes and cultured as previously described. After about 12 weeks of culturing, the cells reached the second passage with a confluence of approx. 80%. […] The determinations were carried out in duplicate or in triplicate. After the stimulation, the cells were washed, removed from the Petri dishes with 1 ml of PBS and centrifuged down in Eppendorf tubes (100 rpm, 5 min, 4° C.). The supernatant was discarded. 100 ul of lysis buffer (Nonidet P40, 0.5%, SDS 0.5%) were added to about 50 ul of cells and the mixture was incubated on ice for a further 20 minutes. The lysate was centrifuged once again (20 minutes, 1400 rpm, 4° C.) and the supernatant was used for the subsequent experiments. Protein was determined by means of the BCA (bicinchoninic acid) assay. The homogenates were diluted down to a protein concentration of 2 ug/ul.
(§1) Procollagen type I C-peptide in the fibroblasts from all the hearts was determined on a 96-well microtiter plate using a commercially obtainable solid-phase ELISA assay (TaKaRa Biomedicals, Shuzo Co, Ltd.). The assay was carried out in accordance with the manufacturer's instructions. […] The values for the procollagen type I C-peptide were determined using a standard curve of 10-640 ng/ml. The standards were provided by the manufacturer. The absorption values for the stimulations obtained with the controls (buffer) were set at 100%. The absorption values for the stimulated cells were related to the control values obtained for the same heart. In each case, the mean values from duplicate or triplicate determinations were used for the calculations. A bilateral, unpaired t test was used for statistically evaluating the comparison of the stimulation responses in control cells and in cardiac insufficiency cells.

[2] = test system: human cardiac fibroblasts from healthy donor hearts; assay: Procollagen type I C-peptide ELISA (collagen synthesis) in fibroblasts from control (healthy donor) hearts; conditions: 10^−7 mol/l; for Collagen synthesis (procollagen type I C-peptide, Absorption, in % of the controls), MV: mean value over control (donor) hearts
Method: Human cardiac fibroblasts were isolated from seven explanted human hearts in the terminal stage of cardiac insufficiency due to dilated cardiomyopathy. Four cell preparations were also made from healthy donor hearts. The fibroblasts were isolated in sterile 10 cm Petri dishes and cultured as previously described. After about 12 weeks of culturing, the cells reached the second passage with a confluence of approx. 80%. At this stage, the serum was withdrawn for 48 hours and the cells were subsequently stimulated for various intervals of time (between 6 and 24 hours) with UII, Ang II, TNFalpha, TGFβ, UII+TNFa, (in each case 10^−7 mol/l), or buffer (control). The determinations were carried out in duplicate or in triplicate. After the stimulation, the cells were washed, removed from the Petri dishes with 1 ml of PBS and centrifuged down in Eppendorf tubes (100 rpm, 5 min, 4° C.). The supernatant was discarded. 100 ul of lysis buffer (Nonidet P40, 0.5%, SDS 0.5%) were added to about 50 ul of cells and the mixture was incubated on ice for a further 20 minutes. The lysate was centrifuged once again (20 minutes, 1400 rpm, 4° C.) and the supernatant was used for the subsequent experiments. Protein was determined by means of the BCA (bicinchoninic acid) assay. The homogenates were diluted down to a protein concentration of 2 ug/ul.
as §1

[3] = test system: fibroblasts from human hearts; assay: Induction of mRNAs (collagen 1, MMP2, TGFbeta1, CTGF) in heart fibroblasts, real-time PCR; conditions: 1 μM, 6 hours stimulation, fibroblasts from three human hearts, GAPDH mRNA as standard reference
Method: Fibroblasts were isolated from human hearts as described in Cell and Tissue Research 286, 145-153 (1996). 96-98% of the resulting cell culture consisted of fibroblasts.
For the purpose of implementing this procedure, heart tissue was cut into small pieces and incubated three times, at 37° C. for 20 minutes, in KHB (Krebs Henseleit buffer) containing 2 mg of collagenase/ml and 2 mg of dispase/ml. The homogenates were combined and then centrifuged. The sediments were taken up in 10 ml of KHB. The cells were added, in portions of in each case 2 to 3 ml, to uncoated plastic containers. The volume was made up to 10 ml with DMEM (Dulbecco's modification of Eagle's medium) containing […] and 10% FCS (fetal calf serum). After having been incubated at 37° C. for 1 hour, the cells were washed twice with PBS (phosphate-buffered saline) and subsequently cultured, at 37° C. and 5% CO2, for approx. 4-8 weeks until 90% confluence had been reached. There then followed two further passages of in each case 4 weeks' duration. The cells employed in the present experiments were used after the second passage and at 70% to 90% confluence (approx. 3 months after isolation).
The reagents for implementing the cell culture techniques were obtained from Gibco BRL Life Technologies. The cells were first of all kept, at 37° C., in serum-free DMEM containing 4000 mg of glucose/l, 2 mM L-glutamine, 100 μg/0.1 mg of penicillin/streptomycin/ml and 0.1% BSA (bovine serum albumin) before angiotensin II or urotensin II was added, […] RNA was then prepared from the cells after 6 hours.
The RNA was isolated by means of standard methods using guanidinium chloride.
Reverse transcriptase (10 units/ng of RNA) was used to transcribe 500 ng of the RNA from each sample into DNA. For degrading the DNA, the entire volume, containing approx. 8-10 μg of RNA, was incubated with DNase I.
The RNAs were quantified using a LightCycler and a Fast Start SYBR Green RT-PCR kit supplied by Roche Molecular Biochemicals. Corresponding kits from other companies such as Applied Biosystems, Bio-Rad or Stratagene are also suitable for the same purpose. […] The quantities were equalized using GAPDH mRNA as the control.
Fibroblasts were isolated from three human hearts and used in the […]. […] The mRNAs (collagen 1, matrix metalloproteinase 2, TGFbeta1 and CTGF) were quantified by real-time PCR using a LightCycler™. […] Real-time PCR (polymerase chain reaction in real time) makes it possible to determine specific nucleic acids quantitatively. […]

Substance | Collagen synthesis (procollagen type I C-peptide, Absorption, in % of the controls) ([1]; EFH heart No. 1, 24 h) | Collagen synthesis (procollagen type I C-peptide, Absorption, in % of the controls) ([1]; EFH heart No. 4, 24 h) | Collagen synthesis (procollagen type I C-peptide, Absorption, in % of the controls) ([1]; EFH heart No. 10, 5 h) | Collagen synthesis (procollagen type I C-peptide, Absorption, in % of the controls) ([1]; EFH heart No. 11, 5 h) | Collagen synthesis (procollagen type I C-peptide, Absorption, in % of the controls), MV [1] | Collagen synthesis (procollagen type I C-peptide, Absorption, in % of the controls), MV ([1]; listed as TGF β) | Collagen synthesis (procollagen type I C-peptide, Absorption, in % of the controls) ([2]; control heart No. 3, 6 h) | Collagen synthesis (procollagen type I C-peptide, Absorption, in % of the controls) ([2]; control heart No. 3, 12 h) | Collagen synthesis (procollagen type I C-peptide, Absorption, in % of the controls) ([2]; control heart No. 5, 6 h) | Collagen synthesis (procollagen type I C-peptide, Absorption, in % of the controls) ([2]; control heart No. 6, 6 h) | Collagen synthesis (procollagen type I C-peptide, Absorption, in % of the controls), MV [2] | MMP 2 mRNA ([3]; control 0.43 +/− 0.2) | CTGF mRNA ([3]; control 0.45 +/− 0.27) | Col 1 mRNA ([3]; control 0.56 +/− 0.1) | TGFbeta1 mRNA ([3]; control 0.60 +/− 0.09) | Collagen synthesis (procollagen type I C-peptide, Absorption, in % of the controls), MV ([1]; listed as Ang II) | Collagen synthesis (procollagen type I C-peptide, Absorption, in % of the controls) ([1]; EFH heart No. 12, 12 h) | Collagen synthesis (procollagen type I C-peptide, Absorption, in % of the controls) ([1]; EFH heart No. 13, 12 h) | Collagen synthesis (procollagen type I C-peptide, Absorption, in % of the controls) ([1]; EFH heart No. 14, 12 h) | Collagen synthesis (procollagen type I C-peptide, Absorption, in % of the controls), MV ([1]; listed as TNFalpha)
TGFβ | 166 % of the controls | 377 % of the controls | 142 % of the controls | 123 % of the controls | 202 % of the controls | 202+/−52 % of the controls | 84 % of the controls | 123 % of the controls | 71 % of the controls | 110 % of the controls | 97 % of the controls |  |  |  |  |  |  |  |  | 
angiotensin II (DRVYIHPF; Angiotensin-2; UniProt P01019 25-32, looked up) [AII, reference compound] | 142 % of the controls | 471 % of the controls | 94 % of the controls | 113 % of the controls |  |  | 84 % of the controls | 92 % of the controls | 88 % of the controls |  | 88 % of the controls | 0.22 +/− 0.1 | 0.34 +/− 0.9 | 0.56 +/− 0.27 | 0.71 +/− 0.07 | 205+/−67 % of the controls and 205 % of the controls |  |  |  | 
TNFa | 166 % of the controls | 262 % of the controls | 67 % of the controls | 91 % of the controls | 139 % of the controls |  | 81 % of the controls | 92 % of the controls | 77 % of the controls | 92 % of the controls | 86 % of the controls |  |  |  |  |  | 107 % of the controls | 126 % of the controls | 190 % of the controls | 139+/−26 % of the controls
